Columns and labels:
Assay type in all cases: cell-based
[1] = system: Escherichia coli ATCC 8739; experiment: Bactericidal activity, CFU counting method; conditions: E. coli ATCC 8739; for Number of CFU/mL (× 10^7): 18 h at 37 °C, Control 9.47, Control with DMSO 9.30
Method: (§1) The bacterial cultures: Escherichia coli ATCC 8739 and Staphylococcus aureus ATCC 65389 were grown on Luria–Bertani Agar for 18 h at 37 ^∘ C. The strain suspension was prepared in 0.85% saline, with an optical density equivalent to a 0.5 McFarland standard. Next, the following mixtures were prepared: 180 μ L of sterile enriched broth (BTL), 10 μ L of the bacterial suspension and 10 μ L of the tested compound (range 0.1–50 μ g/mL) solubilized in DMSO. As a negative control, only DMSO was added. As a sterility control, 180 μ L of BTL and 20 μ L saline were used. The microtiter plate was incubated at 37 ^∘ C for 18 h. The colony forming unit (CFU) method was used to evaluate the microbial population. The experiment was repeated three times. Gentamicin was used as the reference antibiotic.

[2] = system: Staphylococcus aureus ATCC 65389; experiment: Bactericidal activity, CFU counting method; conditions: S. aureus ATCC 65389; for Number of CFU/mL (× 10^7): 18 h at 37 °C, Control 21.36, Control with DMSO 20.85; for less CFU/mL (reduction of the number of CFU/mL): versus control
Method: as §1

[3] = system: AGS cell lines (human gastric adenocarcinoma); experiment: MTT reduction cytotoxicity assay; conditions: for mean percentage of viable cells ± SD: 24 h
Method: (§2) Cell cultures: The L929 mouse fibroblasts and human gastric adenocarcinoma cell line AGS were used for in vitro cytotoxicity assays. The cells were maintained under standard conditions (37 ^∘ C, 5% CO 2 ) in 25 cm^2 tissue culture flasks in RPMI-1640 medium supplemented with 10% fetal bovine serum (FBS) and antibiotics: 100 U/mL penicillin and 100 μ g/mL streptomycin. The cell suspension containing 10 ^8 cells in 1 mL, was obtained by treatment of confluent monolayers with 0.25% trypsin solution, washed and subcultured. Cell cultures were supplemented with medium to maintain them in log phase growth. The viability of the cells was assessed by exclusion of trypan blue dye.
(§3) Measurements of cellular metabolic activity and global growth inhibition: L929 cells were seeded into 96-well plates (2 × 10 ^5 cells/well) for 24 h, at 37 ^∘ C, 5% CO2 . Tested compounds 5a–c, 6a–c, 7a–c, 8a–c, 9b,c, 10b,c, 12a and 13a were diluted serially in RPMI-1640 medium in concentrations of 50, 20, 10, 5, 0.5 and 0.1 μ g/mL, added to the cells (100 μ L/well), and incubated under standard conditions for 24 h. The potential harmful effect of lactones on L929 and AGS cells was assessed by the ability of the cells to reduce 3-(4,5-dimethylthiazol-2-yl)-2,5-diphenyltetrazolium bromide (MTT) to formazan. The solution of MTT (5 mg/mL in PBS), was added to each well and the plates were incubated for 4h at 37 ^∘ C. Formazan crystals were dissolved with acidic isopropanol (0.1 M HCl in absolute isopropanol) and the plates were read in a plate reader (Victor 2) at 570 nm. The percentage of MTT reduction was calculated by comparing the absorbance of treated cells to that of untreated control cells. Results are expressed as the mean percentage of viable cells ± standard deviation (SD) of four independent experiments. Statistical significance was accepted at a p-value < 0.05.

[4] = system: L929 cell lines (mouse fibroblasts); experiment: MTT reduction cytotoxicity assay; conditions: 24 h
Method: as §2, §3

Compound	Number of CFU/mL (× 10^7) [1]	Number of CFU/mL (× 10^7) [2]	IC50 [3]	mean percentage of viable cells ± SD ([3]; 0.1 μg/mL)	mean percentage of viable cells ± SD ([3]; 0.5 μg/mL)	mean percentage of viable cells ± SD ([3]; 5 μg/mL)	mean percentage of viable cells ± SD ([3]; 10 μg/mL)	mean percentage of viable cells ± SD ([3]; 20 μg/mL)	mean percentage of viable cells ± SD ([3]; 50 μg/mL)	mean percentage of viable cells ± SD ([4]; 0.1 μg/mL)	mean percentage of viable cells ± SD ([4]; 0.5 μg/mL)	mean percentage of viable cells ± SD ([4]; 5 μg/mL)	mean percentage of viable cells ± SD ([4]; 10 μg/mL)	mean percentage of viable cells ± SD ([4]; 20 μg/mL)	mean percentage of viable cells ± SD ([4]; 50 μg/mL)	less CFU/mL (reduction of the number of CFU/mL) [2]	less CFU/mL (reduction of the number of CFU/mL) ([1]; versus control)
CC1CC(=O)OC(c2cccc3ccccc23)C1Cl (mixture of isomers) [6a, Cis,trans-5-chloro-tetrahydro-4-methyl-6-(naphthalen-1-yl)pyran-2-one]	7.58 × 10^7 CFU/mL	5.20 × 10^7 CFU/mL	1900 nM	35 ± 0.06%	28 ± 0.07%	23 ± 0.09%	19 ± 0.01%	8 ± 0.09%	8 ± 0.05%	15 ± 0.03%	11 ± 0.08%	9 ± 0.15%	7 ± 0.07%	6 ± 0.03%	2 ± 0.09%	–	–
CC1CC(=O)OC(c2ccccc2)C1Cl (mixture of isomers) [6b, Cis,trans-5-chloro-tetrahydro-4-methyl-6-phenylpyran-2-one]	6.32 × 10^7 CFU/mL	3.58 × 10^7 CFU/mL	4400 nM	42 ± 0.02%	35 ± 0.02%	28 ± 0.03%	21 ± 0.02%	14 ± 0.07%	8 ± 0.06%	32 ± 0.07%	27 ± 0.12%	25 ± 0.02%	16 ± 0.03%	4 ± 0.15%	2 ± 0.05%	78–83%	–
CC1CC(=O)OC(c2ccc(F)cc2)C1Cl (mixture of isomers) [6c, Cis,trans-5-chloro-6-(4-fluorophenyl)-tetrahydro-4-methylpyran-2-one]	2.06 × 10^7 CFU/mL	7.39 × 10^7 CFU/mL	2900 nM	49 ± 0.10%	37 ± 0.05%	28 ± 0.06%	16 ± 0.10%	14 ± 0.07%	6 ± 0.08%	24 ± 0.03%	22 ± 0.05%	18 ± 0.12%	9 ± 0.05%	4 ± 0.08%	2 ± 0.02%	83%	70–78%
CC1CC(=O)OC(c2cccc3ccccc23)C1Br (mixture of isomers) [8a, Cis,trans-5-bromo-tetrahydro-4-methyl-6-(naphthalen-1-yl)pyran-2-one]	7.14 × 10^7 CFU/mL	9.29 × 10^7 CFU/mL	1600 nM	61 ± 0.10%	47 ± 0.06%	39 ± 0.09%	25 ± 0.05%	17 ± 0.07%	9 ± 0.09%	23 ± 0.03%	19 ± 0.03%	14 ± 0.03%	7 ± 0.06%	4 ± 0.02%	1 ± 0.15%	83%	–
CC1CC(=O)OC(c2ccccc2)C1Br (mixture of isomers) [8b, Cis,trans-5-bromo-tetrahydro-4-methyl-6-phenylpyran-2-one]	5.83 × 10^7 CFU/mL	9.04 × 10^7 CFU/mL	1900 nM	44 ± 0.15%	35 ± 0.10%	31 ± 0.02%	28 ± 0.09%	17 ± 0.10%	11 ± 0.05%	24 ± 0.03%	17 ± 0.08%	15 ± 0.03%	8 ± 0.05%	4 ± 0.08%	1 ± 0.02%	–	–
CC1CC(=O)OC(c2ccc(F)cc2)C1Br (mixture of isomers) [8c, Cis,trans-5-bromo-6-(4-fluorophenyl)-tetrahydro-4-methylpyran-2-one]	8.87 × 10^7 CFU/mL	3.60 × 10^7 CFU/mL	2500 nM	69 ± 0.15%	58 ± 0.10%	43 ± 0.10%	18 ± 0.07%	11 ± 0.03%	10 ± 0.09%	25 ± 0.03%	20 ± 0.08%	15 ± 0.03%	11 ± 0.03%	5 ± 0.02%	1 ± 0.05%	78–83%	–
CC1CC(=O)OC(c2ccc(F)cc2)C1Cl (stereo not drawn) [5c, Trans,trans-5-chloro-6-(4-fluorophenyl)-tetrahydro-4-methylpyran-2-one]	9.46 × 10^7 CFU/mL	14.83 × 10^7 CFU/mL	600 nM	54 ± 0.12%	47 ± 0.12%	44 ± 0.10%	34 ± 0.09%	21 ± 0.08%	10 ± 0.12%	26 ± 0.03%	21 ± 0.15%	14 ± 0.09%	10 ± 0.03%	4 ± 0.06%	2 ± 0.12%	–	–
CC1CC(=O)OC(c2ccc(F)cc2)C1Br (stereo not drawn) [7c, Trans,trans-5-bromo-6-(4-fluorophenyl)-tetrahydro-4-methylpyran-2-one]	6.52 × 10^7 CFU/mL	6.42 × 10^7 CFU/mL	3500 nM	63 ± 0.03%	49 ± 0.06%	42 ± 0.02%	25 ± 0.12%	18 ± 0.10%	8 ± 0.07%	27 ± 0.08%	21 ± 0.08%	17 ± 0.02%	11 ± 0.08%	5 ± 0.05%	1 ± 0.03%	–	–
